The test system of data set [1] is HeLa. Put plainly: Cytotoxicity against human HeLa cells after 24 to 72 hrs by Cell Titer Blue assay. The format is cell-based. For orientation: Alamar Blue is a resazurin reagent that responds to reducing activity.
Data set [2] deals with T1, carboxylesterase 1 (CES1) (Homo sapiens, UniProt P23141).
T1 sequence (P23141 whole entry): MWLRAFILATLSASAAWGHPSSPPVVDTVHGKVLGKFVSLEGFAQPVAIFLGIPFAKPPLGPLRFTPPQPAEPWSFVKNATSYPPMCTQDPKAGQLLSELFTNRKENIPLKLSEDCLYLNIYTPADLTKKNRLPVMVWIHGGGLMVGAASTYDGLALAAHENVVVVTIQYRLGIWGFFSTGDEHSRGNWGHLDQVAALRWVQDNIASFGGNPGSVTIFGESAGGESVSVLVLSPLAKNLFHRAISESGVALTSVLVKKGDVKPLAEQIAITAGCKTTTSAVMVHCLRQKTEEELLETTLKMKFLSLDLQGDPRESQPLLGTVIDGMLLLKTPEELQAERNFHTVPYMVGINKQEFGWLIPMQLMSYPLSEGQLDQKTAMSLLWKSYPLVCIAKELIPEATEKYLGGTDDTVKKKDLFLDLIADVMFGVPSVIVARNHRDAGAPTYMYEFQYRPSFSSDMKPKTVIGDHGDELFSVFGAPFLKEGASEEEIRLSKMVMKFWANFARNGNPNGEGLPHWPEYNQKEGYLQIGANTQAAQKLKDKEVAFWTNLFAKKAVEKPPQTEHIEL
Put plainly: Substrate activity at human carboxylesterase 1 expressed in baculovirus infected Sf9 insect cells assessed as enzyme-catalysed compound cleavage incubated for 2 hrs by HPLC analysis. In kind it is ADME. The settings on record: read-out: Activity.

In data set [3] the test system is KB 3-1. Nature of the data set: Antiproliferative activity against human KB-31 cells incubated for 96 hrs by spectrophotometric method. The format is functional, cell-based. The settings on record: KB 3-1, 96 h.
A short description of data set [4]: Antiproliferative activity against human KB-8511 cells incubated for 96 hrs by spectrophotometric method. In kind it is functional, cell-based. As to conditions: KB-ChR-8-5-11, 96 h.
The species entered for data set [5] is Bos taurus. Nature of the data set: Inhibition of bovine brain tubulin polymerization preincubated for 15 mins followed by GTP addition and measured for 30 mins by spectrophotometric method.
Data set [6] addresses Tubulin. Put plainly: Inhibition of tubulin polymerization (unknown origin). The format is protein-complex assay, Homo sapiens.
Data set [7] relates to SF-268. Nature of the data set: Cytotoxicity against human SF-268 cells by calcein AM reagent based fluorescence method. The format is functional, cell-based.
In data set [8] the test system is SF-268. Put plainly: Cytotoxicity against human SF-268 cells by cell titer-glow assay. The format is functional, cell-based. For orientation: Cellular ATP, detected with luciferase, serves as a proxy for viable cell number.
For data set [9], the system named is HCT-116. Put plainly: Cytotoxicity against human HCT-116 cells by calcein AM reagent based fluorescence method. In kind it is functional, cell-based.
Data set [10] concerns HCT-116. Nature of the data set: Cytotoxicity against human HCT-116 cells by cell titer-glow assay. In kind it is functional, cell-based.
The test system of data set [11] is BJAB. Nature of the data set: Cytotoxicity against human BJAB cells. The format is functional, cell-based.
The nature of data set [12]: Inhibition of calf brain tubulin by turbidimetry. The arrangement: species or system Bos taurus.
Data set [13] has as its system A549. Put plainly: Cytotoxicity against human A549 cells. In kind it is functional, cell-based.
In data set [14] the test system is Bel-7402. Nature of the data set: Cytotoxicity against human BEL7402 cells. In kind it is functional, cell-based.
Data set [15] relates to MCF7. Put plainly: Cytotoxicity against human MCF7 cells. The format is functional, cell-based.
In data set [16] the test system is A2780. Put plainly: Cytotoxicity against human A2780 cells. The format is functional, cell-based.
In data set [17] the test system is HaCaT. Nature of the data set: Cytotoxicity against human HaCaT cells incubated for 72 hrs by MTT assay. The format is functional, cell-based. In general terms: Formazan colour is commonly taken as a measure of viable cells.
The subject of data set [18] is PANC-1. Put plainly: Cytotoxicity against human PANC1 cells incubated for 72 hrs by MTT assay. In kind it is functional, cell-based. As to conditions: PANC-1, 72 h.
Data set [19] concerns DU-145. Nature of the data set: Antiproliferative activity against human DU145 cells incubated for 72 hrs by WST assay. As to conditions: DU-145, 72 h. In kind it is functional, cell-based.
Data set [20] relates to PANC-1. Put plainly: Antiproliferative activity against human PANC1 cells incubated for 72 hrs by WST assay. The format is functional, cell-based. As to conditions: PANC-1, 72 h.

The term IC50 denotes the concentration that gives 50% inhibition. With `COc1cc2c(c(OC)c1OC)-c1ccc(NCCCC(=O)N[C@@H](CC(C)C)C(=O)OC3CCCC3)c(=O)cc1[C@@H](NC(C)=O)CC2`, the half-maximal inhibitory concentration (IC50) in [1] was found to be 1190 nM. The metabolised at 2 h in data set [2] turned out to be 18%.

As a reminder, the inhibition is the relative decrease from the control value, in per cent. As for `COc1c(CN(C)C(C)=O)c2c(c(OC)c1OC)-c1ccc(OC)c(=O)cc1[C@@H](NC(C)=O)CC2`, the 50% inhibitory concentration (IC50) in data set [3] and in data set [4] was above 1000 nM each time. In [5], this compound came in with an inhibition of 0%.

Take `COc1c(CNC(C)=O)c2c(c(OC)c1OC)-c1ccc(OC)c(=O)cc1[C@@H](NC(C)=O)CC2`: the IC50 in data set [3] and in data set [4] was above 1000 nM in each case. The compound further gave an inhibition in data set [5] of 0%.

On to `COc1cc2c(c(OC)c1OC)-c1ccc(OC)c(=O)cc1CC=C2`, for which the midpoint of inhibition in data set [6], the IC50, lay at 1600 nM.

For the compound `COc1cc2c(c(OC)c1OC)-c1ccc(OC)c(=O)cc1[C@@H](NC(=O)CN(OC)C1C[C@H](O)[C@H](O)CO1)CC2` (stereo partly specified), the IC50 in [7], in data set [8], in [9] and in data set [10] was 300 nM in each case.

Consider `CCCCCCCCCCCC(=O)OCc1cn([C@H]2CCc3cc(OC)c(OC)c(OC)c3-c3ccc(OC)c(=O)cc32)nn1`, for which the half-inhibitory concentration (IC50) in data set [11] was determined as 4 nM.

As for `COc1ccc2c(c1)NC(=O)CCc1cc(OC)c(OC)c(OC)c1-2`, 21000 nM corresponded to half-maximal inhibition in data set [12] (IC50).

On to `COc1cc2c(c(OC)c1OC)-c1ccc(NCCOC(=O)CCC(=O)Oc3cccc(CO[N+](=O)[O-])c3)c(=O)cc1[C@@H](NC(C)=O)CC2`, for which the IC50 in [13] is 17 nM; in data set [14] it was 17 nM; in data set [15] it was 17 nM; in data set [16], 20 nM.

`COc1cc2c(c(OC)c1OC)-c1ccc(NCCCC(=O)N[C@H](C(=O)OC3CCCC3)c3ccccc3)c(=O)cc1[C@@H](NC(C)=O)CC2` came in with an IC50 in data set [1] of 1240 nM. Further, in data set [2], the metabolised at 2 h came to 0%.

For the compound `COc1cc2c(c(OC)c1OC)-c1ccc(OC)c(=O)cc1[C@@H](NC(=O)CN(OC)C1O[C@@H]3OC(=O)[C@@H](O)[C@@H]3[C@@H]1O)CC2` (stereo partly specified), the IC50 in data set [7], in data set [8], in data set [9] and in [10] was 300 nM in each case.

For `COC(=O)c1ccc2c(c1)[C@@H](NC(=O)CO)CCc1cc(OC)c(OC)c(OC)c1-2`, the figures for the concentration for half-maximal inhibition (IC50) in data set [17] and in data set [18] were 16 nM and 80 nM, respectively.

Regarding `COc1c(COC(C)=O)c2c(c(OC)c1OC)-c1ccc(OC)c(=O)cc1[C@@H](NC(C)=O)CC2`, the 50% inhibitory concentration (IC50) in data set [3] and in [4] was above 1000 nM each time. This compound showed an inhibition in data set [5] of 100%.

The compound `COc1cc2c(c(OC)c1OC)-c1ccc(NCCC(O)C(=O)N[C@H](C(=O)OC3CCCC3)c3ccccc3)c(=O)cc1[C@@H](NC(C)=O)CC2` (stereo partly specified) came in with an IC50 in data set [1] of 220 nM. In data set [2], the metabolised at 2 h was determined as 0%.

Compound `COc1cc2c(c(OC)c1OC)-c1ccc(OC)c(=O)cc1C(=O)CC2` had an IC50 in data set [6] of 1100 nM.

`COc1ccc2c(c1)[C@@H](NC(C)=O)CCc1cc(OC)c(OC)c(OC)c1-2`: the values for the IC50 in [19], in data set [20] and in [12] were 780 nM, 80 nM and 300 nM, respectively.

Regarding `COc1cc2c(c(OC)c1OC)-c1ccc(OC)c(=O)cc1[C@@H](NC(=O)CN(OC)C1C[C@@H](O)[C@@H](O)CO1)CC2` (stereo partly specified), the IC50 in data set [7], in [8], in data set [9] and in [10] was 300 nM each time.

Regarding `COc1c(CNC(=O)c2ccccc2)c2c(c(OC)c1OC)-c1ccc(OC)c(=O)cc1[C@@H](NC(C)=O)CC2`, the IC50 in data set [3] and in data set [4] was above 1000 nM each time. The same compound displayed an inhibition in data set [5] of 0%.

`COc1cc2c(c(OC)c1OC)-c1ccc(NCCOC(=O)CCC(=O)OCCCCO[N+](=O)[O-])c(=O)cc1[C@@H](NC(C)=O)CC2`: the half-inhibitory concentration (IC50) in data set [13] worked out at 40 nM; in [14] it was 40 nM; in data set [15] it was 40 nM; in [16], 20 nM.

Regarding `COC(=O)NC1CCc2cc(OC)c(OC)c(OC)c2-c2ccc(F)cc21` (stereo unspecified), the IC50 was found to be 1400 nM in data set [19] and 7000 nM in data set [20].

Take `COc1cc2c(c(OC)c1OC)-c1ccc(OC)c(=O)cc1CCC2`: in data set [6], half-maximal inhibition (IC50) required 2600 nM.

Consider `COc1ccc2c(c1)-c1n[nH]cc1Cc1cc(OC)c(OC)c(OC)c1-2`, for which, in data set [12], the IC50 came out at 470 nM.

The values above are taken from ChEMBL document CHEMBL4665675 (J Med Chem, 2020).
